From article PMC5719431, “Structural insights into the potency of SK channel positive modulators” (Scientific Reports, 2017)

Legend:
[1] = molecular target: T1, SK2-a channel (SK2, KCa2.2) co-expressed with CaM (Rattus norvegicus, UniProt P0DP29+P70604); assay: inside-out patch clamp, potentiation of SK2 current; assay type: cell-based
T1 construct: gene Kcnn2; full-length SK2-a co-transfected with CaM and GFP in TsA201 cells; tetrameric channel

[2] = molecular target: T2, CaM/CaMBD complex (CaM and SK2 channel fragment R395–Q486) (Rattus norvegicus, UniProt P0DP29+P70604); assay: X-ray crystal structure (soaked crystals); assay type: binding; conditions: Ca2+-CaM, site at interface of CaMBD and CaM N-lobe
T2 construct: gene Kcnn2; both expressed in E. coli Rosetta-2
T2 sequence (P70604 396-487, one chain of several): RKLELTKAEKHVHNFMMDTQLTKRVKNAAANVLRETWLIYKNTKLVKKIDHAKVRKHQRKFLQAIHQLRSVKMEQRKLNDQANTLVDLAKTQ

T1 sequence (P70604 whole entry, one chain of several): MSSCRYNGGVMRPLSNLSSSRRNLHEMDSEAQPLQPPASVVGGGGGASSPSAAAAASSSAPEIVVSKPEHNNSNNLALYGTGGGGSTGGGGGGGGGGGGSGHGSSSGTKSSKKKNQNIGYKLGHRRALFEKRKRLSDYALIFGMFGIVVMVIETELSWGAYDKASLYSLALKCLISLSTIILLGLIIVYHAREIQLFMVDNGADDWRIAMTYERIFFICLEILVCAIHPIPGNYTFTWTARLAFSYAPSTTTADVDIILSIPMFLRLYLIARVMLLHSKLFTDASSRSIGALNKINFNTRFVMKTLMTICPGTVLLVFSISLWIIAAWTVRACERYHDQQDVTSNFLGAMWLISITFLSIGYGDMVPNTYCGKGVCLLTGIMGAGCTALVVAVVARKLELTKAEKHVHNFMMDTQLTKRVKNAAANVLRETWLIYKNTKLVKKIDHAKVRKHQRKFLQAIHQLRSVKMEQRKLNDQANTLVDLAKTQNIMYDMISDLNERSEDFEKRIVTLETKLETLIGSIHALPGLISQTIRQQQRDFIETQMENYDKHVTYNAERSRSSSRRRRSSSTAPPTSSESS

| EC50 [1] [µM] | SMILES | X-ray crystal structure (soaked crystals) ([2]; soaked about 5 months) | X-ray crystal structure (soaked crystals) ([2]; soaked about 1 month) |
| --- | --- | --- | --- |
| 33.2 ± 4.8 | O=C1Nc2c(F)cccc2C1=NO [SKS-14, 7-fluoro-3-(hydroxyimino)indolin-2-one] | crystal structures of SKS-11 and SKS-14 in complex with their binding pocket | – |
| 3.87 ± 0.88 | Cc1cc2c(cc1Br)NC(=O)C2=NO [SKS-11, 6-bromo-5-methyl-1H-indole-2,3-dione-3-oxime] | – | crystal structures of SKS-11 and SKS-14 in complex with their binding pocket |
| 0.552 ± 0.083 | O=C1Nc2c(ccc(Cl)c2Cl)C1=NO [NS309] | – | – |
